Data as given in ChEMBL document CHEMBL5584291, “Rational design of small-sized peptidomimetic inhibitors disrupting protein-protein interaction” (RSC Med Chem, 2024).
pIC50, pKi: −log10 of the molar value. Blank lines part the entries; values can stand above or below the molecule they belong to. *1 amine or outer side, *2 acyl side, *3 side chain or, on linkers, in order; H or OH if unused. Where a SMILES comes first, the peptide text is derived from it. Bridges are numbered along the chain shown (N, C = ends). [ ]: non-standard residue; d: D form. The star is where a group is joined. ξ: configuration not given here. X2 = c1ccc(-c2cn(CC3CCCCC3)c([C@@H]3CCCN3*)n2)cc1; dαMeDab = C[C@](CCN[*:3])(N[*:1])C(=O)[*:2]; X1 = NC(CO)C(=O)NC(Cc1ccccc1)C(=O)NCCCCN*; Ala(cPent) = N[C@@H](CC1CCCC1)C(=O)O; Arg(Me) = CNC(=N)NCCC[C@H](N)C(=O)O; d(αMeK) = C[C@@](N)(CCCCN)C(=O)O; Pentanoyl(4-Me) = CC(C)CCC(=O)*; dPhg = N[C@@H](C(=O)O)c1ccccc1; Isobutyryl = CC(C)C(=O)*; ξE = NC(CCC(=O)O)C(=O)O; Abu = CC[C@H](N)C(=O)O; Dap = NC[C@H](N)C(=O)O

Columns and labels:
[1] = system: Splenocyte; assay: Inhibition of mouse splenocyte proliferation at 100 nM relative to control; format: functional
[2] = target: Programmed cell death protein 1/Programmed cell death 1 ligand 1 (Homo sapiens, UniProt Q15116+Q9NZQ7); assay: Inhibition of PD-1/PD-L1 (unknown origin) protein-protein interaction by HTRF assay; format: protein-complex assay
[3] = system: B16-F10; assay: Antitumor activity against mouse B16-F10 cells xenografted in C57BL/6 mouse assessed as reduction in lung metastasis at 5 mg/kg, ip administered once daily for 14 days relative to control; format: functional; parameters: scale not given: the % may be the effect or the level left; settings: time 14 day
[4] = Inhibition of human full length WDR5/RbBP5 (1 to 538 residues)/ASH2L (1 to 635 residues) expressed in Rosetta2 BL21 (DE3) pLysS incubated for 90 mins by SPA based histone methyltransferase assay
[5] = target: Histone-lysine N-methyltransferase, H3 lysine-79 specific (Homo sapiens, UniProt Q8TEK3); assay: Binding affinity to DOT1L (unknown origin) assessed as inhibition constant
Chain of Histone-lysine N-methyltransferase, H3 lysine-79 specific (Q8TEK3 whole entry): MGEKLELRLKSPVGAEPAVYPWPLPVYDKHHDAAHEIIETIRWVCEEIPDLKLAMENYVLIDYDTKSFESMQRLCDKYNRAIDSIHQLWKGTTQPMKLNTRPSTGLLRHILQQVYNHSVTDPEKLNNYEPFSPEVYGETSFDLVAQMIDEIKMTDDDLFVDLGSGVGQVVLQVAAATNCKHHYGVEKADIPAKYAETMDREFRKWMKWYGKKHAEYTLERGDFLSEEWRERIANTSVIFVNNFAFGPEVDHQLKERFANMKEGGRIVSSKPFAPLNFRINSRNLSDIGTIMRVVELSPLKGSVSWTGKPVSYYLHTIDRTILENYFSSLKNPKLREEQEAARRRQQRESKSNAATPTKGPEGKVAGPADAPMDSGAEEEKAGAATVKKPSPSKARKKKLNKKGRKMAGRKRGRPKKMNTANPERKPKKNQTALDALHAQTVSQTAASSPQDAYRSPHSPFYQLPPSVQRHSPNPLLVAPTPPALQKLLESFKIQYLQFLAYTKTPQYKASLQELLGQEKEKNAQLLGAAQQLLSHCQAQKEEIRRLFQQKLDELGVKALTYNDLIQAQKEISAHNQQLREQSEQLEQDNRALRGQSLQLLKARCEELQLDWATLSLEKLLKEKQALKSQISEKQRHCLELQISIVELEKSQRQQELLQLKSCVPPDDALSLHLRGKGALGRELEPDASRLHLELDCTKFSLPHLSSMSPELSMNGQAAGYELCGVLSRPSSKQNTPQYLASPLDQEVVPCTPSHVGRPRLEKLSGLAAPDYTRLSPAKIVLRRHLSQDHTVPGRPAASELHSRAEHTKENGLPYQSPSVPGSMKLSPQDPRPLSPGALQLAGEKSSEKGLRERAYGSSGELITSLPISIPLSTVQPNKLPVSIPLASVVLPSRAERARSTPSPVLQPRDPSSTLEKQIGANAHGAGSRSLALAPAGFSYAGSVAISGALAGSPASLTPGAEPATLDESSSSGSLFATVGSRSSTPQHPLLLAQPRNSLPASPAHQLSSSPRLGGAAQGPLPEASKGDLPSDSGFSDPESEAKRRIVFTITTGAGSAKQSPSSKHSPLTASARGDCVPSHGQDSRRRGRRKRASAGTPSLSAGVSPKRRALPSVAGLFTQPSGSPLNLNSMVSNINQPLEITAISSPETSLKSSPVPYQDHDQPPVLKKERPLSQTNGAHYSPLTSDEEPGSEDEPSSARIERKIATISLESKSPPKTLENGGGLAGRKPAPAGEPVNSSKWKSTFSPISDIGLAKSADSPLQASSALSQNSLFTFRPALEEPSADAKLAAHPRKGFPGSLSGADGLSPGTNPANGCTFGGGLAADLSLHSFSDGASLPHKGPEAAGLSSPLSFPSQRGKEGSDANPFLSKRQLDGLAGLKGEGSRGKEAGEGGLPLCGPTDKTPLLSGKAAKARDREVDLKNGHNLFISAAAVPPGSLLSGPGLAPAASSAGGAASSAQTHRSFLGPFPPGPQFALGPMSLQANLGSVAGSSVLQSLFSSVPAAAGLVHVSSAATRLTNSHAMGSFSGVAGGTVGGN

Chain of Programmed cell death protein 1/Programmed cell death 1 ligand 1 (Q15116 whole entry): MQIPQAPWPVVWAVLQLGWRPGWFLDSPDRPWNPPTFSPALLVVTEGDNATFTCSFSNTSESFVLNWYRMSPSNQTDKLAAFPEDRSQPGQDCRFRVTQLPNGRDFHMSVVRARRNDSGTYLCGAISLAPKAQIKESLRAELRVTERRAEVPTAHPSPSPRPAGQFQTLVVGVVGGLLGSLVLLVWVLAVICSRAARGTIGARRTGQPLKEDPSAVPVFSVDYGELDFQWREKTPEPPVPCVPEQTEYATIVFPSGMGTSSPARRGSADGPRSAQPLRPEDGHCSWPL
Chain of Programmed cell death protein 1/Programmed cell death 1 ligand 1 (Q9NZQ7 whole entry): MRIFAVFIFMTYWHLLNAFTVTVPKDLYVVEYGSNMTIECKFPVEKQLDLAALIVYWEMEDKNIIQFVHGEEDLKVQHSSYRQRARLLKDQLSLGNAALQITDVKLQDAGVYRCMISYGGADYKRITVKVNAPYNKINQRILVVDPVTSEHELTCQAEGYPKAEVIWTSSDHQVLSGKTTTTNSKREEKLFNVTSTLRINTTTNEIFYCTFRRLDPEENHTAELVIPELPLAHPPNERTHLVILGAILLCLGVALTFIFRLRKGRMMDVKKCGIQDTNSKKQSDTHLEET

SMILES: NCCCC[C@H](NC(=O)N[C@@H](CC(N)=O)C(=O)NNC(=O)[C@@H](N)CO)C(=O)O
inhibition at 0.1 µM [1]: 87%

SMILES: C[C@H](O)[C@H](NC(=O)N[C@@H](CC(N)=O)C(=O)NNC(=O)[C@@H](N)CO)C(=O)O
inhibition at 0.1 µM [1]: 68%

SMILES: CC(O)[C@H](NC(=O)N[C@@H](CC(N)=O)C1NC([C@@H](N)CO)=NO1)C(=O)O (stereo partly drawn)
pIC50 [2]: 7.77

SMILES: C[C@@H](O)[C@@H]1NCC(=O)C(NC(=O)[C@@H](N)CO)CCC(=O)NCCCCC(C(=O)N[C@@H](CO)C(=O)N[C@@H](Cc2ccccc2)C(N)=O)NC(=O)[C@H](CO)NC1=O (stereo partly drawn)
Activity [3]: 54%

SMILES: C[C@@H](O)[C@H](NC(=O)[C@H](CC(N)=O)NC(=O)[C@@H](N)CO)C(=O)N[C@@H](CO)C(=O)NC(CCC(=O)NCCCCNC(=O)C(Cc1ccccc1)NC(=O)C(N)CO)C(N)=O (stereo partly drawn) (H-SNTS[ξE](X1)-NH2)
Activity [3]: 4%

pIC50 [4]: 9.05
SMILES: CC[C@@H]1NC(=O)[C@H](CCCNC(=N)N)NC(=O)[C@](C)(NC(=O)C(C)C)CCCCNC(=O)[C@@H](c2ccccc2)NC1=O (Isobutyryl-[d(αMeK)]R[Abu][dPhg]; lactam 1-C)

pIC50 [4]: 9.05
SMILES: CC[C@@H]1NC(=O)[C@H](CCCNC(=N)NC)NC(=O)[C@](C)(NC(=O)C(C)C)CCNC(=O)[C@@H](c2ccccc2)NC1=O (Isobutyryl-[dαMeDab][Arg(Me)][Abu][dPhg]; lactam 1-C)

pKi [5]: 7.64
SMILES: CC(C)CCC(=O)N1CCC[C@H]1C(=O)N[C@H](C(=O)N[C@@H](CN)C(=O)N[C@@H](CC1CCCC1)C(=O)N1CCC[C@H]1c1nc(-c2ccccc2)cn1CC1CCCCC1)C(C)C ({Pentanoyl(4-Me)}-PV[Dap][Ala(cPent)]-X2)
